Assay results published in patent US9790169B2, “IDO inhibitors” (BRISTOL-MYERS SQUIBB COMPANY, priority 2015, dated 2017).

Biological target: T1, human IDO1 (Homo sapiens, UniProt P14902)
Assay: Assessment of human IDO-1 inhibitory activity in Hela cells (Interferon-gamma stimulated HeLa cells, Ehrlich reagent, absorbance 490 nm)
Type: cell-based
Set-up: endogenous in cells; host or cells: HeLa cells stimulated with interferon-gamma
Details: Hela Human IDO-1 cellular assay
Protocol: Exemplary compounds were tested for inhibition of IDO activity.
Assessment of Human IDO-1 Inhibitory Activity in Hela Cells
HeLa cells were seeded at 20,000 cells per 30 μL per well with RPMI/phenol red free media containing 10% FBS in a 384-well tissue culture plate (black with clear bottoms). 50 nL of compound was added to cells and incubated at 37° C. for one hour. 20 μL of the recombinant human Interferon-gamma (R&D System, Cat. #285-IF, at final concentration of 10 ng/ml) or recombinant murine Interferon-gamma (PEPROTECH® Inc., Cat. #315-05, final concentration of 5 ng/ml) was added to activate IDO signaling. The cells were incubated for 18 hours in 37° C. incubator with 5% CO2.
Compound treatment was stopped by adding 5 μl trichloroacetic acid to a final concentration of 3%. Subsequently, the cell plate was further incubated at 50° C. for 30 minute. An equal volume supernatant (20 μL) and 2% (w/v) Ehrlich reagent (4-dimethylaminobenzaldehyde) in glacial acetic acid were mixed in a new clear bottom 384-well plate. This plate was incubated at room temperature for 30 minutes. Absorbance at 490 nm was measured on Envision plate reader.
Compound IC50 values were calculated using counts from unstimulated (no INF-gamma treatment) wells as 100% inhibition. INF-gamma treatment without compound treatment as 0% inhibition.

T1 sequence (P14902 whole entry): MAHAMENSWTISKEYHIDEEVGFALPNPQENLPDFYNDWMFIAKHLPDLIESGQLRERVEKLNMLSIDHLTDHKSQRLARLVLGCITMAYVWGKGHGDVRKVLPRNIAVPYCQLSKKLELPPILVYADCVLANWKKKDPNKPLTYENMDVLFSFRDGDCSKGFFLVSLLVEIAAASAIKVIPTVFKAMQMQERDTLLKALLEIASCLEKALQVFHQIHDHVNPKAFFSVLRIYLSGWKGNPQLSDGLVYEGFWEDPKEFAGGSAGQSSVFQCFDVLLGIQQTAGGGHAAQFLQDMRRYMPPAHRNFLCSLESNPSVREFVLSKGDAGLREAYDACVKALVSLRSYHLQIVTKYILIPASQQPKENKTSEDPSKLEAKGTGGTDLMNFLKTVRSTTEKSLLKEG

Structure (SMILES) | IC50
CCC(CC(=O)O)c1ccc(N(CC)C2CCOC2)c(NC(=O)Nc2ccc(Cl)cc2F)c1 (single isomer, unassigned) [Example 946 D2, 3-(3-(3-(4-Chloro-2-fluorophenyl)ureido)-4-(ethyl(tetrahydrofuran-3-yl)amino)phenyl)pentanoic acid] | < 5 nM
CC[C@H](CC(=O)O)c1ccc(N(CC)C2CCOCC2)c(Nc2cnc(OC)cn2)c1 (single isomer, unassigned) [Example 507] | < 5 nM
CCN(c1ccc(C(C)CC(=O)O)cc1Nc1ccc(C#N)cc1)C1CCOCC1 (single isomer, unassigned) [Example 625, 3-(3-((4-cyanophenyl)amino)-4-(ethyl(tetrahydro-2H-pyran-4-yl)amino)phenyl)butanoic acid] | < 5 nM
Cc1ccc(NC(=O)Nc2cc(C(C)CC(=O)O)ccc2N2C[C@@H](C)O[C@@H](C)C2)cc1 (single isomer, unassigned) [Example 751] | > 50 nM
CCOc1cnc(Nc2cc(C(C)CC(=O)O)ccc2N(CC)C2CCOCC2)cn1 (single isomer, unassigned) [Example 630, 3-(3-((5-ethoxypyrazin-2-yl)amino)-4-(ethyl (tetrahydro-2H-pyran-4-yl)amino)phenyl)butanoic acid] | < 50 nM
COCC(CC(=O)O)c1ccc(N(CC2CC2)C2CCOCC2)c(Nc2ccc(C(N)=O)nc2)c1 (single isomer, unassigned) [Example 693, 3-(3-((6-carbamoylpyridin-3-yl)amino)-4-((cyclopropylmethyl) (tetrahydro-2H-pyran-4-yl)amino)phenyl)-4-methoxybutanoic acid] | > 50 nM
CCC(CC(=O)O)c1ccc(N2CCOC(C)(C)C2)c(NC(=O)Nc2ccc(Cl)cc2F)c1 (single isomer, unassigned) [Example 1322 E1, 3-(3-(3-(4-Chloro-2-fluorophenyl)ureido)-4-(2,2-dimethylmorpholino)phenyl)pentanoic acid] | > 50 nM
CCN(c1ccc([C@H](COC)CC(=O)O)cc1NC(=O)Nc1ccc(F)cc1F)C1CCOCC1 (single isomer, unassigned) [Example 442] | > 50 nM
CCOc1cnc(Nc2cc([C@@H](CC)CC(=O)O)ccc2N(CC)C2CCOCC2)cn1 (single isomer, unassigned) [Example 465] | < 5 nM
CCOc1ncc(Nc2cc(C(COC)CC(=O)O)ccc2N2CCC(c3ccccc3)CC2)cn1 (single isomer, unassigned) [Example 1354, 3-(3-((2-ethoxypyrimidin-5-yl)amino)-4-(4-phenylpiperidin-1-yl)phenyl)-4-methoxybutanoic acid] | < 5 nM
CCC(CC(=O)O)c1ccc(N2CCNCC2)c(Nc2ccc(C#N)cc2)c1 (single isomer, unassigned) [Example 671 Enantiomer 1, 3-(3-((4-Cyanophenyl)amino)-4-(piperazin-1-yl)phenyl)pentanoic acid] | > 50 nM
CC(C)CN(CC(C)C)c1ccc(C(C)(C)CC(=O)O)cc1Nc1ccc(Cl)cc1 [Example 145, 3-(3-((4-Chlorophenyl)amino)-4-(diisobutylamino)phenyl)-3-methylbutanoic acid] | < 5 nM
CCC(CC(=O)O)c1ccc(N2CC(O)(c3ccc(F)cc3)C2)c(Nc2ccc(Cl)cc2)c1 (single isomer, unassigned) [Example 1253 E2, 3-(3-((4-Chlorophenyl)amino)-4-(3-(4-fluorophenyl)-3-hydroxyazetidin-1-yl)phenyl)pentanoic acid] | < 5 nM
C[C@@H]1CN(c2ccc(C(CC(=O)O)C3CC3)cc2Nc2ccc(Cl)cc2)C[C@H](C)O1 (single isomer, unassigned) [Example 244] | < 50 nM
CCN(c1c(F)cc(C(COC)CC(=O)O)cc1Nc1ccc(C#N)cc1)C1CCOCC1 (single isomer, unassigned) [Example 918, 3-(3-((4-Cyanophenyl)amino)-4-(ethyl(tetrahydro-2H-pyran-4-yl)amino)-5-fluorophenyl)-4-methoxybutanoic acid] | < 50 nM
COCC(CC(=O)O)c1ccc(N2C[C@@H]3C[C@H]2CN3C(=O)OC(C)(C)C)c(Nc2ccc(C#N)cc2)c1 (single isomer, unassigned) [Example 451 Diastereomer 2] | > 50 nM
CCC(CC(=O)O)c1cnc(N(CC)C2CCOCC2)c(Nc2ccc(C#N)cc2)c1 (racemic) [Example 1379] | < 5 nM
CCN(c1ccc([C@H](CC(=O)O)C(F)(F)F)cc1NC(=O)Nc1ccc(C)cc1)C1CCOCC1 (single isomer, unassigned) [Example 1269] | < 50 nM
CCN(c1ccc(C2(CC(=O)O)CCOCC2)cc1Nc1ccc(Cl)cc1)C1CCOCC1 [Example 155, 2-(4-(3-((4-chlorophenyl)amino)-4-(ethyl(tetrahydro-2H-pyran-4-yl)amino)phenyl)tetrahydro-2H-pyran-4-yl)acetic acid] | < 5 nM
CCC(CC(=O)O)c1ccc(N(CCOC)C2CCOCC2)c(Nc2ccc(C#N)cc2)c1 (single isomer, unassigned) [Example 1258, 3-(3-((4-cyanophenyl)amino)-4-((2-methoxyethyl)(tetrahydro-2H-pyran-4-yl)amino)phenyl)pentanoic acid] | < 5 nM
CCN(c1ccc([C@@H](COC)CC(=O)O)cc1Nc1ccc(C#N)cn1)C1CCOCC1 (single isomer, unassigned) [Example 352] | < 50 nM
CCOc1ncc(Nc2cc([C@@H](CC)CC(C)(C)O)ccc2N(CC)C2CCOCC2)cn1 (single isomer, unassigned) [Example 1345] | > 50 nM
CCC1COCCN1c1ccc([C@@H](COC)CC(=O)O)cc1Nc1ccc(C#N)cn1 (single isomer, unassigned) [Example 1283] | > 50 nM
CCN(c1ccc([C@@H](CC(=O)O)C(F)(F)F)cc1NC(=O)Nc1ccc(C)cc1)C1CCOCC1 (single isomer, unassigned) [Example 1272] | < 50 nM
COCC(CC(=O)O)c1ccc(N(CC(F)F)C2CCOCC2)c(Nc2ccc(C#N)cc2)c1 (single isomer, unassigned) [Example 322, 3-(3-((4-cyanophenyl)amino)-4-((2,2-difluoroethyl)(tetrahydro-2H-pyran-4-yl)amino)phenyl)-4-methoxybutanoic acid] | < 5 nM

Biological target: T1, human IDO1
Assay: Assessment of human IDO-1 inhibitory activity in HEK cells (human IDO1/HEK293 cells, kynurenine read-out with Ehrlich reagent, absorbance 490 nm)
Type: cell-based
Set-up: expressed in transfected cells
Details: HEK Human IDO-1 cellular assay
Outline: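 Kynurenine output from stably IDO1-transfected HEK293 cells (10,000/well, phenol red-free RPMI, 10% FBS) after 20 h compound exposure at 37 °C. The reaction was stopped with 0.2% TCA and heated 30 min at 50 °C, then the supernatant was mixed with Ehrlich reagent and read at 490 nm. IC50 was set against DMSO and a 500 nM reference standard as 0 and 100% inhibition.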

Structure (SMILES) | IC50
CCc1ccc(Nc2cc([C@@H](CC)CC(=O)O)ccc2N(CC)C2CCCCC2)cc1 (single isomer, unassigned) [Example 282] | < 5 nM
CC[C@@H](CC(=O)O)c1ccc(N2CCOC[C@@H]2C(C)C)c(Nc2ccc(F)cc2)c1 (single isomer, unassigned) [Example 84] | < 50 nM
CC[C@@H](CC(=O)O)c1ccc(N2CCC[C@H]2C(C)(C)F)c(NC(=O)Nc2ccc(C)cc2)c1 (single isomer, unassigned) [Example 785] | > 50 nM
CC[C@H](CC(=O)O)c1ccc(N(CC)C2CCOCC2)c(NC(=O)Nc2ccc(Cl)cc2)c1 (single isomer, unassigned) [Example 531] | < 5 nM
CC[C@H](CC(=O)O)c1ccc(N(CC)C2CCOCC2)c(Nc2ccn3nccc3n2)c1 (single isomer, unassigned) [Example 511] | > 50 nM
COCC(CC(=O)O)c1cc(F)c(N(CC(C)C)C2CCCCC2)c(NC(=O)Nc2cc(C)on2)c1 (single isomer, unassigned) [Example 1158, 3-(4-(cyclohexyl(isobutyl)amino)-3-fluoro-5-(3-(5-methylisoxazol-3-yl)ureido)phenyl)-4-methoxybutanoic acid] | < 50 nM
CCOc1ccc(NC(=O)Nc2cc([C@H](CC)CC(=O)O)ccc2N(CC(C)C)C2CCS(=O)(=O)CC2)cc1 (single isomer, unassigned) [Example 212] | > 50 nM
CCc1cnc(Nc2cc([C@H](CC)CC(=O)O)ccc2N(CC(C)(C)O)C2CCCCC2)nc1 (single isomer, unassigned) [Example 241] | < 50 nM
CC[C@H](CC(=O)O)c1ccc(N(CC)C2CCCCC2)c(Nc2ccc(C#N)cc2)c1 (single isomer, unassigned) [Example 289] | < 5 nM
CCc1cnc(Nc2cc([C@@H](CC)CC(=O)O)ccc2N(CC)C2CCOCC2)nc1 (single isomer, unassigned) [Example 457] | < 50 nM
CC[C@H](CC(=O)O)c1ccc(N(CC)C2CCOCC2)c(Nc2ccc3nncn3c2)c1 (single isomer, unassigned) [Example 512] | > 50 nM
CCC(CC(=O)O)c1ccc(N2CCC[C@H]2C(C)(C)F)c(Nc2ccc3c(c2)OC(F)(F)O3)c1 (single isomer, unassigned) [Example 790] | < 50 nM
CCC(CC(=O)O)c1ccc(N(CC(C)C)C2CCCCC2)c(Nc2ccc(OC(F)(F)F)cc2)c1 (single isomer, unassigned) [Example 312, 3-(4-(cyclohexyl(isobutyl)amino)-3-((4-(trifluoromethoxy)phenyl)amino)phenyl)pentanoic acid] | < 5 nM
